Assay results taken from US20260250257A1, “ANTIBACTERIAL AND SYNERGISTIC ACTIVE COMPOUND AND USE THEREOF” (EAST CHINA UNIVERSITY OF SCIENCE AND TECHNOLOGY, priority 2023, published 2026).

Experiments:
Assay type in all cases: cell-based
[1] = system: ATCC9027 strain (Pseudomonas aeruginosa); experiment: Checkerboard antibacterial synergistic activity test with polymyxin E (FIC); parameters: key: FIC≤0.5 synergy; 0.5–1 additive; 1–2 indifferent; ≥2 antagonism; settings: combined with polymyxin E
Method in brief: (§1)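 Checkerboard in MH broth: colistin dilutions 16→0.015 μg/ml × test drug 256→4 μg/ml (concentrations before adding inoculum); drug mix plus bacteria, 37° C., 16 h. FIC cut-offs: ≤0.5 synergy; 0.5–1 additive; 1–2 indifferent; ≥2 antagonism.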

[2] = system: ATCC19606 strain (Acinetobacter baumannii); experiment: as above; parameters: key: FIC≤0.5 synergy; 0.5–1 additive; 1–2 indifferent; ≥2 antagonism; settings: combined with polymyxin E
Method in brief: as §1

[3] = system: ATCC25922 strain (Escherichia coli); experiment: as above; parameters: key: FIC≤0.5 synergy; 0.5–1 additive; 1–2 indifferent; ≥2 antagonism; settings: combined with polymyxin E
Method in brief: as §1

[4] = system: ATCC13883 strain (Klebsiella pneumoniae); experiment: as above; parameters: key: FIC≤0.5 synergy; 0.5–1 additive; 1–2 indifferent; ≥2 antagonism; settings: combined with polymyxin E
Method in brief: as §1

[5] = system: ATCC9027 strain (Pseudomonas aeruginosa); experiment: Broth microdilution, antibacterial activity of the compound used alone
Description: (§2) The broth microdilution method was used to test the antibacterial effects of the compounds of the present invention against various Gram-negative bacterial strains when used alone.

[6] = system: ATCC19606 strain (Acinetobacter baumannii); experiment: as above
Description: as §2

[7] = system: ATCC25922 strain (Escherichia coli); experiment: as above
Description: as §2

[8] = system: ATCC13883 strain (Klebsiella pneumoniae); experiment: as above
Description: as §2

SMILES | Synergistic activity (FIC value) ATCC9027 [1] | Synergistic activity (FIC value) ATCC19606 [2] | Synergistic activity (FIC value) ATCC25922 [3] | Synergistic activity (FIC value) ATCC13883 [4] | Antibacterial activity of the compound of Formula I, ATCC9027 [5] [µg/mL] | Antibacterial activity of the compound of Formula I, ATCC19606 [6] [µg/mL] | Antibacterial activity of the compound of Formula I, ATCC25922 [7] [µg/mL] | Antibacterial activity of the compound of Formula I, ATCC13883 [8] [µg/mL]
NC(N)=Nc1nc(-c2cccc3cccc(Cl)c23)c(Cl)s1 [Compound I-62] | 1.25 | 0.52 | 0.63 | 0.52 | 64 | 256 | 128 | 128
Cc1oc(N=C(N)N)nc1-c1cccc2ccc(Cl)cc12 [Compound I-63] | 0.63 | 0.75 | 0.5 | 0.38 | 256 | 256 | 256 | 256
NC(N)=Nc1nc(-c2cccc3cc(Cl)ccc23)co1 [Compound I-64] | 1.25 | 0.52 | 0.63 | 0.52 | 256 | 256 | 256 | 256
NC(N)=Nc1nc(-c2cccc3c(Cl)cccc23)c[nH]1 [Compound I-65] | 1.25 | 0.5 | 1.25 | 1.25 | 256 | 256 | 256 | 256
NC(N)=Nc1nc(-c2cccc3cc(Cl)cc(Cl)c23)c(Br)s1 [Compound I-66] | 0.53 | 0.13 | 0.38 | 0.31 | 256 | 256 | 256 | 256
NC(N)=Nc1nc(-c2cccc3cccnc23)co1 [Compound I-67] | 1.25 | 0.5 | 0.63 | 1.25 | 256 | 256 | 256 | 256
NC(N)=Nc1nc(-c2ccc3cccnc3c2)cs1 [Compound I-68] | 1.25 | 0.51 | 1.25 | 1.25 | 256 | 256 | 256 | 256
NC(N)=Nc1nc(-c2cccc3ccsc23)c[nH]1 [Compound I-69] | 0.51 | 1.25 | 1.25 | 1.25 | 256 | 256 | 256 | 256
Cc1sc(N=C(N)N)nc1-c1cccc2ccoc12 [Compound I-70] | 1.25 | 0.26 | 1.25 | 1.25 | 256 | 256 | 256 | 256
NC(N)=Nc1nc(-c2cccc3ncsc23)co1 [Compound I-71] | 1.25 | 0.13 | 0.52 | 0.19 | 256 | 256 | 256 | 256
